EP4682141A1, “TRICYCLIC COMPOUND” (ONO Pharmaceutical Co., Ltd., priority 2023, dated 2024)

Experiments:
EP1 = target: T1, EP1 (Homo sapiens, UniProt P34995); test: agonist activity on human EP1 receptor (intracellular calcium concentration, EP1-CHO cells); type: cell-based
T1 construct: expressed in transfected cells; host or cells: CHO (EP1-CHO)
T1 sequence (P34995 1-402): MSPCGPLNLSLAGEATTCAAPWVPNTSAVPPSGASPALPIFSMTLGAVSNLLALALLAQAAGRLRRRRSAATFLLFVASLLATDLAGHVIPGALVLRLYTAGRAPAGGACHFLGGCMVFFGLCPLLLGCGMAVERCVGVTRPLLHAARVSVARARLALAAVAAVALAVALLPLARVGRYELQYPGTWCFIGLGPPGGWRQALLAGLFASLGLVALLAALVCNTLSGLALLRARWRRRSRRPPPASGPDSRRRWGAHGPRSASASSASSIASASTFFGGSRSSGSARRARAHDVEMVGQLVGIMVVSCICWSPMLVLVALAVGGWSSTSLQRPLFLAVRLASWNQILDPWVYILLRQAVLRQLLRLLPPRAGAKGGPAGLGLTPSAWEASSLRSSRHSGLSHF
Summary of the method: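 Calcium 6 dye loaded 1 h at room temperature in HBSS with 1% human serum albumin, 2 µmol/L indomethacin, 2.5 mmol/L probenecid, pH 7.4; agonists then added at various concentrations. Intracellular calcium read by fluorescence (ex 480/em 540 nm) in CHO cells expressing human EP1 or Chem1 cells expressing human EP3.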

diabetes model rat = test: inhibitory effect on the amount of albumin excreted in urine in diabetes model rat; type: in vivo, SDT Fatty rats; settings: urine collected for 24 hours, urine albumin/urine creatinine ratio
Description: Male SDT Fatty rats aged 6 weeks (CLEA Japan) were purchased and preliminarily bred for 1 week or more. Experiments were performed at 8 to 16 weeks of age. The animals were fed ad libitum with solid feed CRF-1 (Oriental Yeast) and watered ad libitum.
Animals were housed in metabolic cages 2 days before test substance administration, and urine was collected for 24 hours. On the day before administration of the test substance, urine albumin and urine creatinine were measured, and grouping was performed by a stratification randomization method based on the urine albumin/urine creatinine ratio (ACR) and the average value of body weights for each group.
The compounds (test substances) of Examples 9-5, 10, 11, 12, 25-7 and 32, and water for injection (Otsuka Pharmaceutical) as a vehicle were orally administered once at 5 mL/kg. The administration dose is described in Table 3.
For evaluation of the amount of albumin excreted in urine of each animal, a urine albumin/urine creatinine ratio (ACR) was measured. After administration of the test substance, the animals were housed in metabolic cages, and urine was collected for 24 hours. Each concentration of urine albumin and urine creatinine was measured using an automatic analyzer 7180 (Hitachi High-Tech), and ACR was calculated by dividing the urine albumin concentration by the urine creatinine concentration.

EC50 (EP1) | Compound | ACR mean (diabetes model rat; 0.01 mg/kg orally once) | ACR mean (diabetes model rat; 0.03 mg/kg orally once) | ACR mean (diabetes model rat; 0.003 mg/kg orally once)
3.5 µM | Cc1c(C(=O)O)ccc2c1O[C@H]1C[C@@H](O)[C@H](/C=C/C[C@@](C)(O)CCCC(F)(F)F)[C@H]1CC2 [Example 12, (1R,2R,3aS,10aR)-2-hydroxy-5-methyl-1-[(1E,4S)-8,8,8-trifluoro-4-hydroxy-4-methyl-1-octen-1-yl]-2,3,3a,9,10,10a-hexahydro-1H-benzo[b]cyclopenta[f]oxepine-6-carboxylic acid] | 4602.3 µg/mg | 3887.3 µg/mg | 
> 10 µM | CC(C)(c1ccccc1)C(O)/C=C/[C@H]1CC[C@@H]2Oc3c(ccc(C(=O)O)c3F)CC[C@@H]21 (stereo partly drawn) [Example 25-7, (1R,3aS,10aR)-5-fluoro-1-[(1E,3ξ)-3-hydroxy-4-methyl-4-phenyl-1-penten-1-yl]-2,3,3a,9,10,10a-hexahydro-1H-benzo[b]cyclopenta[f]oxepine-6-carboxylic acid] | 2331.6 µg/mg |  | 3217.6 µg/mg
